Measurements reported in US20160362399A1, “ARYL, HETEROARYL, AND HETEROCYCLIC COMPOUNDS FOR TREATMENT OF COMPLEMENT MEDIATED DISORDERS” (Achillion Pharmaceuticals, Inc., priority 2014, published 2016).
Like-named read-outs stand apart in the source and are kept apart here.

Biological target: T1, Human factor D (Homo sapiens, UniProt P00746)
T1 construct: purified from human serum; purchased Complement Technology, Inc; host or cells: human serum
Experiment: Human Factor D Assay
Format: biochemical
Experimental: Other standard factor D inhibition assays are also available.
Human factor D (purified from human serum, Complement Technology, Inc.) at 80 nM final concentration is incubated with test compound at various concentrations for 5 minutes at room temperature in 50 mM Tris, 1M NaCl, pH 7.5. A synthetic substrate Z-L-Lys-SBzl and DTNB (Ellman's reagent) are added to final concentrations of 100 μM each. The increase in color is recorded at OD405 nm in a microplate in kinetic mode over 30 minutes with 30 second time points in a spectrofluorimeter. IC50 values are calculated by non-linear regression from the percentage of inhibition of complement factor D activity as a function of test compound concentration.

[1] = human factor D 80 nM, substrate Z-L-Lys-SBzl, assay of Example 7, read-out: IC50

T1 sequence (P00746 26-253): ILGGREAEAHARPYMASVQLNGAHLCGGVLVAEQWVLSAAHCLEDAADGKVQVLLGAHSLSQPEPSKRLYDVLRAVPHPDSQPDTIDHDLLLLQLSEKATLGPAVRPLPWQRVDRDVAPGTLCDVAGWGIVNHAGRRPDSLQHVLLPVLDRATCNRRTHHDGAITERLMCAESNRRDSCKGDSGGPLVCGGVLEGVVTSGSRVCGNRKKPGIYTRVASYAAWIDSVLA

| Structure (SMILES) | IC50 [µM] | IC50 [1] [µM] |
| --- | --- | --- |
| NC(=O)c1nn(CC(=O)N2C[C@H](F)C[C@H]2C(=O)N[C@@H]2CCC[C@@H]2OCc2ccccc2)c2ccc(-c3ccnnc3)cc12 [Compound 51, 1-(2-((2S,4R)-2-((1R,2S)-2-(benzyloxy)cyclopentylcarbamoyl)-4-fluoropyrrolidin-1-yl)-2-oxoethyl)-5-(pyridazin-4-yl)-1H-indazole-3-carboxamide] | > 10 | – |
| CC(=O)c1cn(CC(=O)N2[C@@H]3C[C@@H]3C[C@H]2C(=O)Nc2cccc(Br)n2)c2ccc(-c3cnc(C)nc3)cc12 [Compound 132, (1R,3S,5R)-2-(2-(3-acetyl-5-(2-methylpyrimidin-5-yl)-1H-indol-1-yl)acetyl)-N-(6-bromopyridin-2-yl)-2-azabicyclo[3.1.0]hexane-3-carboxamide] | – | < 1 |
| CC(=O)c1cn(CC(=O)N2C[C@H](F)C[C@H]2C(=O)Nc2cccc(-c3ccccc3Cl)c2F)c2ccc(C3=CCN(C(C)=O)CC3)cc12 [Compound 28, (2S,4R)-1-(2-(3-acetyl-5-(1-acetyl-1,2,3,6-tetrahydropyridin-4-yl)-1H-indol-1-yl)acetyl)-N-(2′-chloro-2-fluorobiphenyl-3-yl)-4-fluoropyrrolidine-2-carboxamide] | < 1 | – |
| COc1ncc(-c2ccc3c(c2)c(C(N)=O)nn3CC(=O)N2C[C@H](F)C[C@H]2C(=O)Nc2cccc(-c3ccccc3Cl)c2F)cn1 [Compound 29, 1-(2-((2S,4R)-2-(2′-chloro-2-fluorobiphenyl-3-ylcarbamoyl)-4-fluoropyrrolidin-1-yl)-2-oxoethyl)-5-(2-methoxypyrimidin-5-yl)-1H-indazole-3-carboxamide] | – | < 1 |
| Cc1nc2sccn2c1-c1csc(NC(=O)[C@@H]2C[C@@H](F)CN2C(=O)Cn2nc(C(N)=O)c3cc(-c4ccnnc4)ccc32)n1 [Compound 58, 1-(2-((2S,4R)-4-fluoro-2-(4-(6-methylimidazo[2,1-b]thiazol-5-yl)thiazol-2-ylcarbamoyl)pyrrolidin-1-yl)-2-oxoethyl)-5-(pyridazin-4-yl)-1H-indazole-3-carboxamide] | – | > 10 |
| NC(=O)c1nn(CC(=O)N2C[C@H](F)C[C@H]2C(=O)Nc2ccccc2-c2nc3ccccc3s2)c2ccc(-c3ccnnc3)cc12 [Compound 41, 1-(2-((2S,4R)-2-(2-(benzo[d]thiazol-2-yl)phenylcarbamoyl)-4-fluoropyrrolidin-1-yl)-2-oxoethyl)-5-(pyridazin-4-yl)-1H-indazole-3-carboxamide] | – | > 10 |
